# Test results taken from US5602099A, “δ opioid receptor antagonists” (Aktiebolaget Astra, priority 1993, dated 1997).
# pIC50, pKi: −log10 of the molar value. Like-named read-outs stand apart in the source and are kept apart here. Peptide text beside a SMILES is read from it.
# Legend:
# δ opioid receptors = biological target: T1, δ opioid receptors (Mus musculus, UniProt P32300); experiment: Mouse vas deferens (MVD) bioassay, antagonism of electrically evoked contraction inhibition by δ-selective agonists; type: tissue-based; settings: MVD assay, means of 3-8 determinations
# T1 construct: Bioassays Using Isolated Organ Preparations; from tissue; host or cells: mouse vas deferens (isolated organ)
# Excerpt: (§1) a) Biosassys based on inhibition of electrically evoked contractions of the mouse vas deferens (MVD) and of the guinea pig ileum (GPI). In the GPI assay the opioid effect is primarily mediated by μ opioid receptors, whereas in the MVD assay the inhibition of the contractions is mostly due to interaction with δ opioid receptors.
# (§2) The GPI and MVD bioassays were carded out as reported in P. W. Schiller et al., Biochem. Biophys. Res. Commun 85, 1332-1338 (1978) and J. Di Maio et al., J. Med. Chem. 25, 1432-1438 (1982). A log dose-response curve was determind with [Leu^5 ]enkephalin as standard for each ileum and vas preparation, and IC50 values of the compounds being tested were normalized according to A. A Waterfield et al., Eur. J. Pharmacol. 58, 11-18 (1979). […] These determinations were made with the MVD assay, using three different δ-selective agonists ([Leu^5 ] enkephalin, DPDPE and [D-Ala^2 ]deltorphin I].
# μ opioid receptors [1] = biological target: T2, μ opioid receptors (Cavia porcellus, UniProt P97266); experiment: Guinea pig ileum (GPI) bioassay, inhibition of electrically evoked contractions; type: cell-based; settings: agonist potency
# Excerpt: as §1, §2
# μ opioid receptors [2] = biological target: T2, μ opioid receptors; settings: literature value; cited from earlier work
# μ opioid receptor = biological target: T3, μ opioid receptor (Rattus norvegicus, UniProt P33535); experiment: μ opioid receptor binding assay, displacement of [3H]DAMGO from rat brain membranes
# T3 construct: Male Sprague-Dawley rats (300-350 g) from the Canadian Breeding Laboratories were decapitated and after removal of the cerebellum the brains were homogenized; from tissue; host or cells: rat brain (without cerebellum) membranes, male Sprague-Dawley
# Excerpt: (§3) In the case of κ-ligands guinea pig brain homogenates were used, since the relative proportion of κ-binding sites is higher in guinea pig brain than in rat brain. The experimental procedure being used in our laboratory represents a modified version of the binding assay described by Pasternak et al. (Mol. Pharmacol. 11, 340-351, (1975)). Male Sprague-Dawley rats (300-350 g) from the Canadian Breeding Laboratories were decapitated and after removal of the cerebellum the brains were homogenized in 30 volumes of ice-cold standard buffer (50 mM Tris-HCl, pH 7.7). After centrifugation at 30,000×g for 30 min at 4° C. the membranes were reconstituted in the original volume of standard buffer and incubated for 30 min at 37° C. (to realease bound endogenous ligands). […] The incubation was terminated by filtration through Batman GF/B filters under vacuum at 4° C. Following two washings with 5 ml portions of ice-cold standard buffer the filters were transferred to scintillation vials and treated with 1 ml Protosol (New England Nuclear) for 30 min prior to the addition of 0.5 ml acetic acid and 10 ml Aquasol (New England Nuclear). After shaking for 30 min the vials were counted at an efficiency of 40-45%. All experiments were performed in duplicates and repeated at least three times. […] Values of half-maximal inhibition (IC50) of specific binding were obtained graphically from semilogarithmic plots. From the measured IC50-values, binding inhibition constants (Ki) were then calculated based on Cheng and Prusoff's equation (Biochem, Pharmacol. 22, 3099-3102 (1973)). Ratios of the Ki -values in the μ-, δ- and κ-representative binding assays are a measure of the receptor selectivety of the compound under investigation (e.g. Ki^μ /Ki^δ indicates the selectivity for δ-receptors versus μ-receptors).
# δ opioid receptor = biological target: T4, δ opioid receptor (Rattus norvegicus, UniProt P33533); experiment: δ opioid receptor binding assay, displacement of δ-selective radioligand from rat brain membranes
# T4 construct: Male Sprague-Dawley rats (300-350 g) from the Canadian Breeding Laboratories were decapitated and after removal of the cerebellum the brains were homogenized; from tissue; host or cells: rat brain (without cerebellum) membranes, male Sprague-Dawley
# Excerpt: as §3
# [3] = Ke (nM) against DPDPE, δ agonist DPDPE
# [4] = Ke (nM) against [D-Ala2]deltorphin I, δ agonist [D-Ala2]deltorphin I
# [5] = Ke (nM) against [Leu5]Enkephalin, δ agonist [Leu5]enkephalin
# T4 sequence (P33533 whole entry): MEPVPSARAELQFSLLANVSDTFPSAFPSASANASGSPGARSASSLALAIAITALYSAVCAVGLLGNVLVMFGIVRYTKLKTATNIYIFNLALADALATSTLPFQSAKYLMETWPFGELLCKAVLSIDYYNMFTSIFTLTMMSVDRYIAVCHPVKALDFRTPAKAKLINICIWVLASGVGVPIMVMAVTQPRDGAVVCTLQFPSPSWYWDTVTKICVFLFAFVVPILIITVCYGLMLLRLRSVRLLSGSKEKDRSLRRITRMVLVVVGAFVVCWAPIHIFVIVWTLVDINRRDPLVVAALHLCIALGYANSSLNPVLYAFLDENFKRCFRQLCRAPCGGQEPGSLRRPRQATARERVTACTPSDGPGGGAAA
# T1 sequence (P32300 whole entry): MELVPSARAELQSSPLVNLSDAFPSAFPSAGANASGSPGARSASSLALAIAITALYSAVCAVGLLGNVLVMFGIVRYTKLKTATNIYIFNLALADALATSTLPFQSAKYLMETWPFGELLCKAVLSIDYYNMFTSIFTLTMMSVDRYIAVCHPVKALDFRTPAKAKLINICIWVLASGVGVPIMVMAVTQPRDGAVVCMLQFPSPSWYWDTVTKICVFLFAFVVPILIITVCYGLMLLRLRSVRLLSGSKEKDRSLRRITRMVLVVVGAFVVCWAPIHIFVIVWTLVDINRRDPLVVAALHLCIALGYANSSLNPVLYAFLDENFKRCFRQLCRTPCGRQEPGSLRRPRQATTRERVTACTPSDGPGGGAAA
# T3 sequence (P33535 whole entry): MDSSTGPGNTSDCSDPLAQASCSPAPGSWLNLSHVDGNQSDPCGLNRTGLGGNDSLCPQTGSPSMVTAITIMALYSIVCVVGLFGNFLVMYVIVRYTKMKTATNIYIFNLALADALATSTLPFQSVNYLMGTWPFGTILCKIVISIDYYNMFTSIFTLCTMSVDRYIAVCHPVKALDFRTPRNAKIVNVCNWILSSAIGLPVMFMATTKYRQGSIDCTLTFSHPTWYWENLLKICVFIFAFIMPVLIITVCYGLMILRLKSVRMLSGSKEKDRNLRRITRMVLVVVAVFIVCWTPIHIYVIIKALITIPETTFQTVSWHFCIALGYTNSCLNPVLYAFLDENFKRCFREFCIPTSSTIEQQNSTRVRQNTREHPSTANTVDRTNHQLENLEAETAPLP
# T2 sequence (P97266 whole entry, looked up): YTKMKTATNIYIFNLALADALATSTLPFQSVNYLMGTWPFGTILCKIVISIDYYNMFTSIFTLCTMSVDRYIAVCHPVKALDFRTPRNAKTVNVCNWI
SMILES,Kb (δ opioid receptors; [3]) [nM],Kb (δ opioid receptors; [4]) [nM],Kb (δ opioid receptors; [5]) [nM],pIC50 (μ opioid receptors [1]),"Kb (δ opioid receptors; δ agonist DPDPE, read-out: Ke (nM) against DPDPE) [nM]","Kb (δ opioid receptors; δ agonist [D-Ala2]deltorphin I, read-out: Ke (nM) against [D-Ala2]deltorphin I) [nM]",Ke (μ antagonist) in the guinea pig ileum (GPI) assay (μ opioid receptors [2]) [nM],pKi (μ opioid receptor),pKi (δ opioid receptor),Ki^μ /Ki^δ (δ opioid receptor; δ-selectivity ratio)
"Cc1cc(O)cc(C)c1C[C@H](N)C(=O)N1Cc2ccccc2C[C@H]1CN[C@@H](Cc1ccccc1)C(=O)N[C@@H](Cc1ccccc1)C(N)=O [HDmtTic.psi.[CH2NH]PhePheNH2, H-Dmt-Tic.PSI.[CH2 --NH]Phe-Phe-NH2]",0.42,0.486,0.47,8.11,–,–,–,–,–,–
"Oc1ccc2c3c1O[C@H]1c4[nH]c5ccccc5c4C[C@@]4(O)[C@@H](C2)N(CC2CC2)CC[C@]314 [Naltrindole, naltrindole, reference compound]",–,–,0.85,–,0.632,0.636,29,–,–,–
"CN[C@@H](Cc1ccc(O)cc1)C(=O)N1Cc2ccccc2C[C@H]1C(=O)N[C@@H](Cc1ccccc1)C(=O)N[C@@H](Cc1ccccc1)C(=O)O [Tyr(N^α Me)-TicPhePheOH, Tyr(N^α Me)-Tic-Phe-Phe-OH] (HELM PEPTIDE1{[meY].[Tic].F.F}$$$$V2.0)",1.22,0.436,1.01,–,–,–,–,4.87,8.89,–
"N[C@@H](Cc1ccc(O)cc1)C(=O)N1Cc2ccccc2C[C@H]1C(=O)N[C@@H](CCc1ccccc1)C(=O)N[C@@H](Cc1ccccc1)C(=O)O [HTyrTicHfePheOH, H-Tyr-Tic-Hfe-Phe-OH] (HELM PEPTIDE1{Y.[Tic].[O=C([C@H](CCc1ccccc1)N[*:1])[*:2]].F}$$$$V2.0)",0.609,0.408,1.23,–,–,–,–,5.70,9.56,7180
